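1) Cells in 96-well plates. 2) Compound, 48 h, 5 concentrations. 3) Linear interpolation between surrounding doses. 4) Unreached endpoint = highest concentration. GI50 = concentration required for 50% inhibition of growth.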 Activity calls are given as the source filed them. No stated cut-off is given here; in the data, active = GI50 up to about 1.1 µM and inactive = higher.
Tests used:
Assay in all cases: growth of human tumour cells (NCI), 48 h
OVCAR-8 = test system: OVCAR-8
SK-OV-3 = test system: SK-OV-3
HOP-62 = test system: HOP-62
NCI-H23 = test system: NCI-H23
UACC-62 = test system: UACC-62
NCI/ADR-RES = test system: NCI/ADR-RES
NCI-H226 = test system: NCI-H226
IGROV-1 = test system: IGROV-1
NCI-H522 = test system: NCI-H522
MOLT-4 = test system: MOLT-4
OVCAR-4 = test system: OVCAR-4
CCRF-CEM = test system: CCRF-CEM
SN12C = test system: SN12C
A498 = test system: A498
HOP-92 = test system: HOP-92
HCT-15 = test system: HCT-15
CAKI-1 = test system: CAKI-1
SF-295 = test system: SF-295
HT-29 = test system: HT-29
PC-3 = test system: PC-3
Malme-3M = test system: Malme-3M
UO-31 = test system: UO-31
K562 = test system: K562
SNB-75 = test system: SNB-75
TK-10 = test system: TK-10
RPMI-8226 = test system: RPMI-8226
OVCAR-3 = test system: OVCAR-3
OVCAR-5 = test system: OVCAR-5
NCI-H460 = test system: NCI-H460
SK-MEL-5 = test system: SK-MEL-5
SF-268 = test system: SF-268
HCT-116 = test system: HCT-116
T47D = test system: T47D
M14 = test system: M14
MCF7 = test system: MCF7
KM12 = test system: KM12
SK-MEL-2 = test system: SK-MEL-2
A549 = test system: A549
RXF 393 = test system: RXF 393
SF-539 = test system: SF-539
SW-620 = test system: SW-620
DU-145 = test system: DU-145
ACHN = test system: ACHN
COLO 205 = test system: COLO 205
MDA-MB-435 = test system: MDA-MB-435
UACC-257 = test system: UACC-257
MDA-N = test system: MDA-N
SK-MEL-28 = test system: SK-MEL-28
HCC 2998 = test system: HCC 2998
786-0 = test system: 786-0
U-251 = test system: U-251
BT-549 = test system: BT-549
MDA-MB-231 = test system: MDA-MB-231
SR = test system: SR
SNB-19 = test system: SNB-19
HL-60 = test system: HL-60
EKVX = test system: EKVX
LOX IMVI = test system: LOX IMVI

FC(F)(Sc1ncccn1)c1nc2ccccc2o1
GI50 (OVCAR-8): > 100 µM (inactive) | GI50 (SK-OV-3): > 100 µM (inactive) | GI50 (HOP-62): > 100 µM (inactive) | GI50 (NCI-H23): > 100 µM (inactive) | GI50 (UACC-62): > 100 µM (inactive) | GI50 (NCI/ADR-RES): > 100 µM (inactive) | GI50 (NCI-H226): > 100 µM (inactive) | GI50 (IGROV-1): > 100 µM (inactive) | GI50 (NCI-H522): > 100 µM (inactive) | GI50 (MOLT-4): 57.3 µM (inactive) | GI50 (OVCAR-4): > 100 µM (inactive) | GI50 (CCRF-CEM): 33.5 µM (inactive) | GI50 (SN12C): > 100 µM (inactive) | GI50 (A498): > 100 µM (inactive) | GI50 (HOP-92): 56.8 µM (inactive) | GI50 (HCT-15): > 100 µM | GI50 (CAKI-1): > 100 µM (inactive) | GI50 (SF-295): > 100 µM (inactive) | GI50 (HT-29): > 100 µM (inactive) | GI50 (PC-3): 89.1 µM (inactive) | GI50 (Malme-3M): > 100 µM (inactive) | GI50 (UO-31): 99.3 µM (inactive) | GI50 (K562): 77.4 µM (inactive) | GI50 (SNB-75): 22 µM (inactive) | GI50 (TK-10): > 100 µM (inactive) | GI50 (RPMI-8226): > 100 µM (inactive) | GI50 (OVCAR-3): > 100 µM (inactive) | GI50 (OVCAR-5): > 100 µM (inactive) | GI50 (NCI-H460): > 100 µM (inactive) | GI50 (SK-MEL-5): > 100 µM (inactive) | GI50 (SF-268): > 100 µM (inactive) | GI50 (HCT-116): 84.3 µM (inactive) | GI50 (T47D): > 100 µM (inactive) | GI50 (M14): > 100 µM (inactive) | GI50 (MCF7): > 100 µM (inactive) | GI50 (KM12): > 100 µM (inactive) | GI50 (SK-MEL-2): > 100 µM (inactive) | GI50 (A549): > 100 µM (inactive) | GI50 (RXF 393): 79.3 µM (inactive) | GI50 (SF-539): > 100 µM (inactive) | GI50 (SW-620): > 100 µM (inactive) | GI50 (DU-145): > 100 µM (inactive) | GI50 (ACHN): > 100 µM (inactive) | GI50 (COLO 205): > 100 µM (inactive) | GI50 (MDA-MB-435): 99.1 µM (inactive) | GI50 (UACC-257): > 100 µM (inactive) | GI50 (MDA-N): > 100 µM (inactive) | GI50 (SK-MEL-28): > 100 µM (inactive) | GI50 (HCC 2998): > 100 µM (inactive) | GI50 (786-0): > 100 µM (inactive) | GI50 (U-251): 55.5 µM (inactive) | GI50 (BT-549): > 100 µM (inactive) | GI50 (MDA-MB-231): > 100 µM (inactive) | GI50 (SR): 37.8 µM (inactive)

NC(=O)OCc1c(-c2ccccc2)nn(-c2ccccc2)c1COC(N)=O
GI50 (OVCAR-8): > 100 µM (inactive) | GI50 (NCI-H23): > 100 µM (inactive) | GI50 (UACC-62): > 100 µM (inactive) | GI50 (NCI/ADR-RES): > 100 µM (inactive) | GI50 (NCI-H226): > 100 µM (inactive) | GI50 (IGROV-1): > 10 µM (inactive) | GI50 (NCI-H522): > 100 µM (inactive) | GI50 (OVCAR-4): > 100 µM (inactive) | GI50 (SN12C): > 100 µM (inactive) | GI50 (HOP-92): > 100 µM (inactive) | GI50 (HCT-15): > 100 µM | GI50 (CAKI-1): > 100 µM (inactive) | GI50 (SF-295): > 100 µM (inactive) | GI50 (HT-29): > 100 µM (inactive) | GI50 (PC-3): > 100 µM (inactive) | GI50 (Malme-3M): > 100 µM (inactive) | GI50 (UO-31): > 100 µM (inactive) | GI50 (SNB-75): 45.7 µM (inactive) | GI50 (TK-10): > 100 µM (inactive) | GI50 (RPMI-8226): > 100 µM (inactive) | GI50 (OVCAR-3): > 100 µM (inactive) | GI50 (OVCAR-5): > 100 µM (inactive) | GI50 (SK-MEL-5): > 100 µM (inactive) | GI50 (SF-268): > 100 µM (inactive) | GI50 (HCT-116): > 100 µM (inactive) | GI50 (T47D): > 100 µM (inactive) | GI50 (M14): > 100 µM (inactive) | GI50 (MCF7): > 100 µM (inactive) | GI50 (KM12): > 100 µM (inactive) | GI50 (SK-MEL-2): > 100 µM (inactive) | GI50 (A549): > 100 µM (inactive) | GI50 (RXF 393): > 100 µM (inactive) | GI50 (SF-539): > 100 µM (inactive) | GI50 (SW-620): > 100 µM (inactive) | GI50 (DU-145): > 100 µM (inactive) | GI50 (COLO 205): > 100 µM (inactive) | GI50 (MDA-MB-435): > 100 µM (inactive) | GI50 (UACC-257): > 100 µM (inactive) | GI50 (MDA-N): > 100 µM (inactive) | GI50 (SK-MEL-28): > 100 µM (inactive) | GI50 (HCC 2998): > 100 µM (inactive) | GI50 (786-0): > 100 µM (inactive) | GI50 (U-251): > 100 µM (inactive) | GI50 (BT-549): > 100 µM (inactive) | GI50 (MDA-MB-231): > 100 µM (inactive) | GI50 (SNB-19): > 100 µM (inactive)

Cc1cc(C2CC(O)C(CO)O2)c(F)cc1F (stereo not given)
GI50 (HL-60): 91.6 µM (inactive) | GI50 (OVCAR-8): > 100 µM (inactive) | GI50 (SK-OV-3): > 100 µM (inactive) | GI50 (HOP-62): > 100 µM (inactive) | GI50 (NCI-H23): > 100 µM (inactive) | GI50 (UACC-62): > 100 µM (inactive) | GI50 (NCI/ADR-RES): > 100 µM (inactive) | GI50 (NCI-H226): > 100 µM (inactive) | GI50 (IGROV-1): > 100 µM (inactive) | GI50 (NCI-H522): > 100 µM (inactive) | GI50 (MOLT-4): > 100 µM (inactive) | GI50 (OVCAR-4): > 100 µM (inactive) | GI50 (CCRF-CEM): > 100 µM (inactive) | GI50 (SN12C): > 100 µM (inactive) | GI50 (A498): > 100 µM (inactive) | GI50 (HOP-92): > 100 µM (inactive) | GI50 (HCT-15): > 100 µM | GI50 (CAKI-1): > 100 µM (inactive) | GI50 (SF-295): > 100 µM (inactive) | GI50 (HT-29): > 100 µM (inactive) | GI50 (PC-3): > 100 µM (inactive) | GI50 (EKVX): > 100 µM (inactive) | GI50 (Malme-3M): > 100 µM (inactive) | GI50 (UO-31): > 100 µM (inactive) | GI50 (K562): > 100 µM (inactive) | GI50 (SNB-75): > 100 µM (inactive) | GI50 (TK-10): > 100 µM (inactive) | GI50 (OVCAR-3): > 100 µM (inactive) | GI50 (OVCAR-5): > 100 µM (inactive) | GI50 (NCI-H460): > 100 µM (inactive) | GI50 (SF-268): > 100 µM (inactive) | GI50 (HCT-116): > 100 µM (inactive) | GI50 (T47D): > 100 µM (inactive) | GI50 (M14): > 100 µM (inactive) | GI50 (MCF7): > 100 µM (inactive) | GI50 (KM12): > 100 µM (inactive) | GI50 (LOX IMVI): > 100 µM (inactive) | GI50 (A549): > 100 µM (inactive) | GI50 (RXF 393): > 100 µM (inactive) | GI50 (SF-539): > 100 µM (inactive) | GI50 (SW-620): > 100 µM (inactive) | GI50 (DU-145): > 100 µM (inactive) | GI50 (ACHN): > 100 µM (inactive) | GI50 (COLO 205): > 100 µM (inactive) | GI50 (MDA-MB-435): > 100 µM (inactive) | GI50 (UACC-257): > 100 µM (inactive) | GI50 (MDA-N): > 100 µM (inactive) | GI50 (SK-MEL-28): > 100 µM (inactive) | GI50 (HCC 2998): > 100 µM (inactive) | GI50 (786-0): > 100 µM (inactive) | GI50 (U-251): > 100 µM (inactive) | GI50 (BT-549): > 100 µM (inactive) | GI50 (MDA-MB-231): > 100 µM (inactive) | GI50 (SR): > 100 µM (inactive) | GI50 (SNB-19): > 100 µM (inactive)
